According to patent US9403806B1, “Cognition enhancing compounds and compositions, methods of making, and methods of treating” (NeuroSolis, Inc., priority 2010, dated 2016):
Where two headings read alike, the source gives them in different places.

How the values were obtained:
[1] = tested on: CD-I mice; test: Apomorphine induced climbing model of psychosis; assay type: in vivo; conditions: APO 2 mg/kg alone
Procedure: As described in Costall et. al. European Journal of Pharmacology 1978, 50, 39. individual CD-I mice, 1-2 months old, were placed in a cylindrical wire mesh cage (13.2 cm high×13.2 cm diameter) constructed of steel wire 1 mm thick spaced at 1.2 cm^2. Cylinders were placed in a standard OptiMICE mouse cage (29×32×9×29 cm and 14 cm high) with adequate wood chip bedding provided. Observations of climbing (defined as 3 or more paws of the ground) were carried out every 5 minutes at a duration of 1 minute for […]. Animals were injected subcutaneously under isoflurane anesthesia with test compounds, reference compounds, which included clozapine, haloperidol, olanzapine and xanomeline, or PBS as a control. This was followed 5 minutes later by 2 mg/kg apomorphine hydrochloride. All drugs were dissolved in PBS or a mixture of (by volume) 96% PBS and 4% hydroxypropyl-beta-cyclodextrin, and dosed at a rate of 5 ml per kilogram of body weight. Following injections, animals were replaced in the mesh cages and observed for climbing (defined as 3 or more paws off the ground) every 5 minutes for 1 minute for 60 minutes after dosing.

[2] = Blood and brain concentrations (rats), tail vein injection; assay type: in vivo, Long-Evans Hooded rats; conditions: rat
Procedure: Long-Evans Hooded rats (Charles River: male, 230-300 g) were dosed with solutions of test compounds in PBS by tail vein injection. The dose for all compounds was 3 mg/kg. At one hour, the animals were anesthetized with isoflurane, and then euthanized by decapitation. Trunk blood was collected into a 1.5 mL microcentrifuge tube containing 15 U Heparin, and the plasma recovered after centrifugation. Brains were dissected, weighed, immediately chilled to 4° C., and homogenized using a PowerGen 125 homogenizer in five volumes of ice-cold 2% formic acid. Proteins were precipitated from plasma and brain homogenate with nine and five volumes respectively of ice-cold 2% formic acid and clarified by centrifugation. The supernatant was ultra-filtered by centrifugation through a 3K MWCO spin column (Pall Life Sciences), following the manufacturer's instructions. The concentration of compound in the ultra-filtrate was subjected to reverse-phase liquid chromatography using a 150×2.1 mm Agent C8 reverse-phase column on a Shimadzu Prominence LC, eluting the compounds with a gradient of 2% to 50% of acetonitrile+0.1% formic acid for all compounds. The concentration of the compound in the column effluent was measured using an Applied Biosystems API-3200 triple quadrupole mass spectrometer equipped with an electrospray sample injection system. The counts of the characteristic parent and product ions of each test compound were converted to concentration units by comparison with a standard curve.

[3] = biological target: T1, human muscarinic M1 receptors (Homo sapiens, UniProt P11229); assay type: cell-based; conditions: for huM1/A9L Smax: percentage of maximal stimulation by carbachol; for huM1/A9L Potency relative to carbachol: relative to the potency of carbachol at its EC50
T1 construct: host or cells: A9L cells
T1 sequence (P11229 1-460): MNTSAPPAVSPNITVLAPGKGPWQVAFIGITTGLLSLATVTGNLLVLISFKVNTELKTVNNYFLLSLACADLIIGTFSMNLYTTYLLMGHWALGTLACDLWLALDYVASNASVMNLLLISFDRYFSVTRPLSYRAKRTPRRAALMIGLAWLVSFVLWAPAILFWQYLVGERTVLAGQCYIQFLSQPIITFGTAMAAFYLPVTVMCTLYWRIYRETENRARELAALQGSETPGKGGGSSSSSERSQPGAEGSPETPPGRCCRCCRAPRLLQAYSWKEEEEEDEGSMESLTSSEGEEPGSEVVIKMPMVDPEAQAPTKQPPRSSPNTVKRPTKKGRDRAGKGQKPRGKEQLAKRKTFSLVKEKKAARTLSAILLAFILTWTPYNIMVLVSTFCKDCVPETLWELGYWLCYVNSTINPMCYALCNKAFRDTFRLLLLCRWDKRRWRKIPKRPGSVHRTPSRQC

[4] = biological target: T2, human muscarinic M3 receptors (Homo sapiens, UniProt P20309); assay type: cell-based; conditions: for huM3/A9L Smax: percentage of maximal stimulation by carbachol; for huM3/A9L Potency relative to carbachol: relative to the potency of carbachol at its EC50
T2 construct: host or cells: A9L cells

[5] = in vitro; assay type: in vitro ADME; conditions: pH 7.4, 24 hours, room temperature
Procedure: PAMPA is a useful in vitro model for predicting the passive diffusion of drugs across the blood-brain barrier (Li, D et al Eur jour of Med Chem 38 (2003) 223-232).
Compounds were diluted in a 100 mM phosphate buffer (pH 7.4) to a concentration of 400 μM and the stock solutions were placed into a 96-well filter plate (Millipore, #MAIPN4510) pre-wetted with 20 mg/mL porcine brain polar lipid extract in 100% dodecane (Avanti, #131022) and placed into a 96-well acceptor plate (Millipore, #MSSACCEPTOR) whose wells were filled with the same phosphate buffer as in the filter plate. This assembly was incubated at room temperature for 24 hours. The experiment was halted by separating the filter plate from the acceptor plate. Aliquots were removed from the filter plate wells, acceptor plate wells, and stock solutions, and 1% trifluoroacetic acid was added to each. All solutions were measured by LC/UV, and passive diffusion rates were calculated using the peak area values (Avdeef, Alex. 2003. Page 147 in Absorption and Drug Development. Hoboken, N.J.: John Wiley & Sons).

[6] = Blood and brain concentrations (rats), tail vein injection; assay type: in vivo, Long-Evans Hooded rats; conditions: rat, 3 mg/kg tail vein injection
[7] = tested on: pooled male human liver microsomes; test: Metabolism in human liver microsomes, Example 45; assay type: in vitro ADME
Procedure: Aliquots were removed every 2 hours, and 1% formic acid was added to halt the reaction. Samples were centrifuged, filtered through 0.2 micron spinfilter, and the amount of each compound in the supernatants was quantitated using LC/MS/MS as follows. The ultra-filtrates were subjected to reverse-phase liquid chromatography using a 150×2.1 mm Agilent C8-reverse phase column on a Shimadzu Prominence LC, eluting the compound with a gradient of 2%-50% acetonitrile+0.1% formic acid over 5 minutes. The concentration of the compound in the column effluent was measured using an Applied Biosystems API-3200 triple quadrupole mass spectrometer equipped with a Turbo V source (electrospray sample injection) system. The counts of the characteristic parent ions of the protonated compound and product ions were converted to concentration by comparison with a standard calibration curve. The parent/daughter ion pairs that were monitored for each compound were: 166.0/82.0 (105), 166.0/82.0 (106b), 166.0/82.0 (106a), 169.0/83.0 (136), 168.2/83.0 (121), 168.1/83.0 (122a), 168.1/83.0 (122b), 170.2/83.0 (134), 168.2/84.1 (135), 168.1/84.1 (137) and 169.2/82.1 (138).

[8] = tested on: muscarinic M3 receptors in the salivary glands; test: In vivo inositol phosphate increase in salivary glands, Example 44; design: species or system Long Evans Hooded rats; conditions: rat, 3 mg/kg sc, 5 mmole/kg LiCl; 3 mg/kg
Procedure: (§1) In lithium chloride-treated laboratory rodents, engagement of muscarinic M1 receptors in the hippocampus may usefully be evaluated in vivo by measuring the increase in the tissue of inositol phosphate (Bymaster F P et al Brain Res 795 (1998) 179-190). This may also be extended to measure engagement of muscaric M3 receptors in the salivary glands.
(§2) Experimental compounds were administered subcutaneously at 3 mg/kg using standard techniques to Long Evans Hooded rats weighing 225 to 350 g, and which had been pretreated with a subcutaneous injection of lithium chloride at a suitable dose between 3 and 5 mmole/kg. At suitable times the animals were briefly anesthetized using 5% isoflurane and euthanized by decapitation. The brains and submaxillary salivary glands were rapidly dissected out, and the hippocampuses were dissected from the brains. The dissected tissues were homogenized in a suitable volume of ice-cold phosphate-buffered saline containing 10 mM lithium chloride (pH=7.4) using a tissue homogenizer, and used immediately or frozen in aliquots at −80° C. for future use. The concentration of inositol-1-phosphate was determined in the homogenates using the […] IP-One Terbium TR-FRET assay kit (Cisbio Bioassays, cat. #62IPAPEJ) according to the manufacturer's instructions.

[9] = tested on: muscarinic M1 receptors in the hippocampus; test: In vivo inositol phosphate increase in hippocampus, Example 44; design: species or system Long Evans Hooded rats; conditions: rat, 3 mg/kg sc, 5 mmole/kg LiCl; 3 mg/kg
Procedure: as §1, §2

[10] = tested on: anesthetized rats; test: Salivation after iontophoretic transdermal co-delivery of agonist and antagonist; assay type: in vivo, Long Evans Hooded rats; conditions: anesthetized rat, one patch with 1 mg Compound 3 plus 0.01 mg antagonist
Procedure: Experimental compounds and drug substances were delivered transdermally in rats using iontophoresis as follows. The fur was shaved from the backs of Long Evans Hooded rats weighing 225 to 325 grams, using electric clippers. Experimental compounds and drug substances were formulated at suitable concentrations an aqueous mixture of the following composition:
The polyvinyl alcohol/water was heated to 95 deg C. until it became clear, then the other constituents were added and mixed well. The mixture was introduced into suitable molds containing a disc-shaped cavity 2.2 cm diameter and 2.2 mm deep. Molds may be fabricated using two glass sheets separated by a silicone rubber sheet with suitable sized cavities and filling ports cut-outs. The molds were subject to 3 freeze-thaw cycles at −80 deg C. and 20 deg C. until a firm cryogel was obtained. The gels were separated from the molds and trimmed into a circular shape. The gel was placed in a silicone rubber casing with one face in contact with a circular silver foil anodic electrode (22 mm dia/250 microns thick), and the assembly was placed on the shaved skin of the rat such that the other face was in contact with the skin on one side of the back of the rat. The rubber casing formed a seal over and around the gel/electrode assembly. […] This was placed on the other side of the shaved back of the rat, the edges of the gel discs being about 20 mm apart at their nearest point. A DC voltage was applied across the two patches from a constant-current DC power supply and the voltage adjusted to obtain the desired current, such that the skin of the animal completed the electrical circuit.
The devices were placed on shaved backs of anesthetized rats and salivation was measured.
The animals were placed slightly head-down on an inclined, heated ramp. Rectal temperature was monitored using a thermocouple and the temperature of the heating pad was adjusted manually to maintain normal body temperature. Saliva was collected from the mouth by absorption onto pre-weighed slips of filter paper. The filter paper was changed periodically and the amount of saliva was measured by weighing the filter paper slips

[11] = tested on: salivary gland inositol phosphate; test: In vivo tissue inositol phosphate signaling pathway activation, salivary gland; design: species or system Long Evans Hooded rats; conditions: rat; for block of increase in salivary gland inositol phosphate caused by Compound 3: Compound 3 1 mg/kg, tertiary amine antagonist 0.1 mg/kg (FIGS. 8C, 8D); for inhibition of salivary gland inositol phosphate response to MCD-386: MCD-386 50 mg/kg, antagonist 0.3 mg/kg (FIG. 7)
Procedure: Experimental compounds or drug substances were administered using standard techniques to Long Evans Hooded rats weighing 225 to 350 grams, and which had been pretreated with a subcutaneous injection of lithium chloride at a suitable dose between 3 and 10 mmoles per kg. At suitable times the animals were briefly anesthetized using 5% isoflurane and euthanized by decapitation. The brains and submaxillary salivary glands were rapidly dissected out, and the hippocampuses were dissected from the brains. The dissected tissues were homogenized in a suitable volume of ice-cold phosphate-buffered saline containing 10 mM lithium chloride, pH7.4, using a tissue homogenizer, and used immediately or frozen in aliquots at −80 deg C. for future use. The concentration of inositol-1-phosphate was determined in the homogenates using the IPOne TR-FRET assay (CisBio cat no 621PAPEB), following the manufacturer's instruction

[12] = 3 mg/kg tail vein injection, read-out: Brain Concentration at 1 hr

T2 sequence (P20309 whole entry): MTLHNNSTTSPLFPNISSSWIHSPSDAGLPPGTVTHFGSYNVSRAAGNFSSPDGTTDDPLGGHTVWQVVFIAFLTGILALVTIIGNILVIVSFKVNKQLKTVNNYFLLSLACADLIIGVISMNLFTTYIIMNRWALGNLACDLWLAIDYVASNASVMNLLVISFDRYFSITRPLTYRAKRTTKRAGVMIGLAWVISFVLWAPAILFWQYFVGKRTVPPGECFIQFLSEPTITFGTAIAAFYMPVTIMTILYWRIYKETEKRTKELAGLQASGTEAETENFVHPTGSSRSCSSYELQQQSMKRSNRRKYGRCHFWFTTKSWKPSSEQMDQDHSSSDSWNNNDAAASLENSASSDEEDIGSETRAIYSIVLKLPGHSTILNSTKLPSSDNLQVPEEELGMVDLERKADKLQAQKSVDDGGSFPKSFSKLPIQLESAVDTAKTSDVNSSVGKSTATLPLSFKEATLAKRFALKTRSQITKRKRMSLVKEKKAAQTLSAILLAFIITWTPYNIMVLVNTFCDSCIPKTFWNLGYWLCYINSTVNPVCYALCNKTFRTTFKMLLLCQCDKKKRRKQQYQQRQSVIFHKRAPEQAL

CN1CCc2cccc3c2[C@H]1Cc1ccc(O)c(O)c1-3 [APO, reference compound]
Climbing Mean [1]: 51.7 s

[2H]C([2H])([2H])c1noc(C23CNC([2H])([2H])C2C3)n1 (stereo not shown) [Compound 135, 5-(2,2-d2-3-azabicyclo[3.1.0]hexan-1-yl)-3-methyl-1,2,4-oxadiazole]
Brain/plasma ratio ([2]; Table 114, 3 mg/kg): 0.61 | Plasma Concentration at 1 hr ([2]; 3 mg/kg tail vein injection): 13.8 µM | concentration at 1 h [2, 12]: 7.7 µM | huM1/A9L Smax [3]: 70% | huM1/A9L Potency relative to carbachol [3]: 1.39 | huM3/A9L Smax [4]: 46% | huM3/A9L Potency relative to carbachol [4]: 0.49 | PAMPA Permeability Coefficient (×10^6) ([5]; 400 μM): 5.40 ×10^6 | Plasma Terminal Half-life [6]: 1.0 h | Loss at 6 hrs (%) [7]: 26% | Increase in Inositol Phosphate in Salivary Gland/Control [8]: 194% | Increase in Inositol Phosphate in Hippocampus/Control [9]: 614%

[2H]C([2H])([2H])c1noc(C23CNC([2H])([2H])C2C3)n1 (stereo not shown) [Compound 136, 5-(4,4,5-d3-3-azabicyclo[3.1.0]hexan-1-yl)-3-methyl-1,2,4-oxadiazole]
Kp at 1 h ([2]; male, Long-Evans Hooded, brain and plasma, intravenous, 3 mg/kg, Table 114, read-out: Brain/Plasma Ratio): 0.56 | concentration at 1 h ([2]; male, Long-Evans Hooded, in vivo, 3 mg/kg, 3 mg/kg tail vein injection, read-out: Plasma Concentration at 1 hr): 13.6 µM | concentration at 1 h [2, 12]: 7.4 µM | huM1/A9L Smax [3]: 41% | huM1/A9L Potency relative to carbachol [3]: 0.89 | huM3/A9L Smax [4]: 36% | huM3/A9L Potency relative to carbachol [4]: 0.45 | Papp at 24 h, 400 µM ([5]; PAMPA, pH 7.4, 400 μM, read-out: PAMPA Permeability Coefficient (×10^6)): 3.71 ×10⁻⁶ cm/s | half-life ([6]; male, Long-Evans Hooded, plasma, iv, 3 mg/kg, read-out: Plasma Terminal Half-life (converted)): 1.15 h | Loss at 6 hrs (%) [7]: 11% | Increase in Inositol Phosphate in Salivary Gland/Control [8]: 231% | Increase in Inositol Phosphate in Hippocampus/Control [9]: 694%

NC(=O)C(c1ccccc1)(c1ccccc1)[C@@H]1CCN(CCc2ccc3c(c2)CCO3)C1 [darifenacin]
reduction of salivation caused by transdermal iontophoretic delivery of Compound 3 [10]: reduced salivation, but were less effective | block of increase in salivary gland inositol phosphate caused by Compound 3 [11]: less effective | inhibition of salivary gland inositol phosphate response to MCD-386 [11]: less effective

CCN(CC)CC#CCOC(=O)C(O)(c1ccccc1)C1CCCCC1 (stereo not shown) [oxybutinin]
reduction of salivation caused by transdermal iontophoretic delivery of Compound 3 [10]: reduced salivation, but were less effective | block of increase in salivary gland inositol phosphate caused by Compound 3 [11]: less effective | inhibition of salivary gland inositol phosphate response to MCD-386 [11]: less effective
